These results are taken from patent US8835455B2, “Crystalline forms of trans-7-oxo-6-(sulphooxy)-1,6-diazabicyclo[3,2,1]octane-2-carboxamide sodium salt” (Forest Laboratories Holdings Limited, priority 2009, dated 2014).

A short description of the series: Behaviour of crystalline forms in humid atmosphere. Type of series: physicochemical. The text has this:
The invention also relates to processes for making a dihydrate form of the sodium salt of (1R,2S,5R)-7-oxo-6-sulphooxy-1,6-diazabicyclo[3.2.1]octane-2-carboxamide called Form III. In exemplary embodiments, crystals of Form II are suspended in water, and the suspension is then left to evaporate slowly in a humid atmosphere. Crystals can also been obtained by trituration of crystals of Form II in water or in an alkanol-water mixture, or by conversion, in a humid atmosphere, of the anhydrous Form I and Form IV to the monohydrated Form II and then to the dihydrated Form III.

Regarding `NC(=O)[C@@H]1CC[C@@H]2CN1C(=O)N2OS(=O)(=O)[O-].[Na+]` [Form III, trans-7-oxo-6-(sulphooxy)-1,6-diazabicyclo[3,2,1]octane-2-carboxamide sodium salt], the “stability at higher humidities” value is “particularly stable”.
